Measured values published in US12102672B2, “Immunogenic sequences from a phage tail length tape measure protein, bacteria expressing the same and their use in treating a cancer” (INSTITUT GUSTAVE ROUSSY, priority 2017, dated 2024).

Legend:
[1] = system: MCA-205 sarcoma; assay: MCA-205 sarcoma growth in FMT-treated mice, CTX plus oral gavage with E. hirae strains; assay type: in vivo; conditions: for Anti-tumor effect: summary of the characteristics of the strains, with CTX, MCA205 sarcoma; for CTX-mediated antitumor effects (MCA-205 tumor growth): FMT from BC patient 2 with no overt dysbiosis, oral gavage; for boost of CTX tumoricidal activity (MCA-205 tumor growth): dysbiotic FMT from BC patient, 3 cycles CTX 100 mg/kg, oral gavage 1.10^9 bacteria
Protocol: FIG. 1. Experimental setting. (A) Mice are treated with broad spectrum antibiotics (streptomycin, colistin, ampicillin and vancomycine) for 3 days before performing Fecal Microbiota Transplantation (FMT). 14 days post-FMT, MCA-205 sarcoma cell lines are inoculated in the right flank of mice (8.10^5 cells per mice). […] (B) Non FMT-treated SPF mice are used as control.
FIG. 2. Dysbiosis by FMT BC patient 1: Effectiveness of E. hirae 13144 to restore CTX-mediated antitumor effects. […] (C) Tumor growth curves of MCA-205 sarcoma in FMT-treated mice after oral gavage with strain E. hirae 13144 or NaCl as control. 2 independent experiments are depicted. (D) Overall survival of FMT-treated, MCA-205 sarcoma bearing mice treated with CTX or NaCl after oral gavage with strain E. hirae 13144. A typical survival curve is depicted for six mice per group. (E) Concatenated data of tumor sizes at day 21 post-CTX from 2 independent experiments are shown.
FIG. 3. […] (C) Tumor growth curves of MCA-205 sarcoma in FMT-treated mice after oral gavage with strain E. hirae 13144 or NaCl as control. 2 independent experiments are depicted. (D) Concatenated data of tumor sizes at day 21 post-CTX from 2 independent experiments are shown.
FIG. 4. […] Tumor growth curves of MCA-205 sarcoma in FMT-treated mice after oral gavage with strain E. hirae 13144 (A), IGR1 (B) or NaCl as control. A typical curve is depicted for six mice per group. (C) Concatenated data of tumor sizes at day 17 post-CTX from 1-2 independent experiments are shown. (D). Comparaison of various strains of E. hirae for their capacity to control tumor growth. […] EH10815 fails to work and that may be related to a mutation residing in TMP2 (see below FIG. 13B).
FIG. 5. […] (A) Tumor surface of MCA-205 sarcoma in FMT-treated mice after oral gavage with strain E. hirae 13144, IGR4, IGR7, Actinomycetes spp (Ao) and injected with 3 cycles of CTX (C) vs NaCl (N). Each dot is one mouse/tumor. (B) Tumor growth curves of MCA-205 sarcoma in SPF mice of the best group, means+SEM of tumor sizes at each time point and tumor sizes at sacrifice (C: CTX). Each dot is one mouse/tumor. Anova statistics indicating significant differences between CTX and the triple combination. (C) Tumor surface of MCA-205 sarcoma in FMT-treated mice after oral gavage with strains EH13144, IGR1, IGR11, Barnesiella or Akkermansia and injected with 3 cycles of CTX. Bacterial strains are used alive (V) or pasteurized (P). For pasteurization, bacteria are incubated 30 min at 70° C. and frozen at −80° C. at least 6 hours.
FIG. 6. […] Tumor growth curves of MCA-205 sarcoma in FMT-treated mice after oral gavage with strain E. hirae 13144 alive (A), pasteurized (B) or NaCl as control. A typical curve is depicted for six mice per group. (C) Concatenated data of tumor sizes at day 17 post-CTX from 3 independent experiments are shown.

[2] = system: pTh17 cells; assay: Induction of pTh17 cells in secondary lymphoid organs of CTX-treated animals; assay type: in vivo
From the text: The reasons for these differences were however unknown, and the inventors pursued their research to identify the factor(s) responsible for the immunogenic properties of the murine strain EH13144 and the human clones IGR4, IGR7 and IGR11, in order to derive new molecules or microorganisms useful in the treatment of cancer.

[3] = system: MCA205 cells with PSMB4 GSFARFRNI knock-in; assay: Growth of Psmb4 knock-in MCA205 tumors under CTX +/- E. hirae 13144; assay type: in vivo, mice; conditions: L→F exchange in position 3, versus WT MCA205
[4] = system: ileal bacterial colonies; assay: Culturomics and TMP PCR of ileal content after gavage with E. hirae 13144 and CTX; assay type: in vivo, C57BL/6 mice; conditions: 76 colonies, oral gavage + systemic CTX
From the text: . […] Also refer to FIG. 39.
PCR amplification of the TMP sequence (refer to FIG. 36) in each colony growing after seeding of ileal content in aerobic conditions to isolate Gram+ bacteria. A photograph of each agarose electrophoresis gel is shown for each animal. A depicts the results in 5 naive mice and B depicts the findings after CTX+oral gavage with the phage encoding bacterium. Each vertical lane corresponds to one bacterium identified in MALDI-TOF. Initials are detailed in the lower part of panel A. The positive control (Ctl+) represents the DNA of E. hirae 13144.
We cultivated the stools (of patients) or ileal material (mice) after several dilutions in aerobic conditions and permissive medium to allow isolation of enterococci colonies (according to a procedure described in (Samb-Ba et al., 2014)). We performed a PCR of the TMP sequence in each single cultivable Enterococcus colony. One colony was put in 100 μl of nuclease-free water to release the bacterial DNA and PCR was performed with 5 μl of DNA, 12.5 μl of PCR master mix (Thermoscientific), 5 μl of nuclease-free water and 1.25 μl of each TMP primers (20 µM). […] The sequence of primers are: forward 5′-[…]-3′ ID No: reverse 5′-(SEQ 191) and […]-3′ (SEQ ID No: 192) (amplicon 1026 bp). […]

[5] = system: TMP1-specific CD8+ T cells
[6] = system: autologous CD4+ T cells or CD8+ T cells; assay: Blood T cell responses of breast cancer patients to monocytes stimulated with bacteria (IFN-γ, IL-10 release); assay type: cell-based, human
Protocol: FIG. 22. T cell responses against commensals in blood from breast cancer patients at diagnosis priori to chemotherapy. Autologous monocytes harvested from breast cancer patients were stimulated with distinct bacterial spp. and then incubated with autologous CD4+ T cells or CD8+ T cells to monitor IFN-γ and IL-10 release. (A) TH1/Tc1/Tr1 immune responses to E. hirae 13144. […] (B) TH1/Tc1/Tr1 immune responses to E. coli or TCR cross-linking. BC women display memory T cell responses against E. coli and respond to TCR cross-linking.

Row | Substance | Anti-tumor effect [1] | CTX-mediated antitumor effects (MCA-205 tumor growth) ([1]; listed as E. hirae 13144) | CTX-mediated antitumor effects (MCA-205 tumor growth) ([1]; listed as EH13144) | boost of CTX tumoricidal activity (MCA-205 tumor growth) ([1]; listed as E. hirae 13144) | boost of CTX tumoricidal activity (MCA-205 tumor growth) ([1]; listed as EH13144) | capacity to induce pTh17 cells in secondary lymphoid organs [2] | anticancer effect on PSMB4 knock-in (GSFARFRNI) MCA205 tumors [3] | in vivo transduction of by-stander Enterococci by the phage [4] | splenic CD8+ T cells recognizing the TMP1 peptide ([5]; day 12 following CTX/E. hirae 13144 regimen, FIG. 27F) | enrichment of TMP1-specific CTLs in the TC1 subset harboring CCR9 ([5]; spleens from naive and tumor bearers, tumor draining lymph nodes) | BC patients who developed IL-10 producing memory CD4+ T cell responses ([6]; FIG. 22A) | BC patients with CD4+ T cells exhibiting no reactivity to pulsed monocytes ([6]; FIG. 22A) | BC patients at diagnosis exhibiting a blood TH1/Tc1 immune response ([6]; prior to chemotherapy)
1 | Enterococcus hirae 708 [Peptide 708, reference compound] | No | – | – | – | – | – | – | – | – | – | – | – | –
2 | Enterococcus hirae strain 13144 [Peptide 13144] | Yes | ameliorates the CTX-mediated antitumor effects | significant | only when used alive | very effective at restoring the efficacy | significant capacity to induce pTh17 cells | drastically blunted the anticancer effects | E. gallinarum was the only by-stander Enterococci transduced | Up to 1% | 3-5 fold | 52% | 32% | Less than 20%
